# Activity calls are given as the source filed them. The calls are words filed in the database; no cut-off is given here.
# How the values were obtained:
# [1] = test system: Mesenchymal stem cells; experiment: Cytotoxicity against human BMMSC cells assessed as reduction in cell viability at 10 uM incubated for 72 hrs by CCK8 assay; assay type: toxicity, cell-based
# [2] = target: T1, Peroxisome proliferator-activated receptor gamma (Homo sapiens, UniProt P37231); experiment: Partial agonist activity at GST-tagged PPAR-gamma ligand binding domain (unknown origin) assessed as recruitment of fluorescein-labeled SRC1 coactivator peptide by LanthaScreen TR-FRET Coactivator assay
# T1 sequence (P37231 whole entry): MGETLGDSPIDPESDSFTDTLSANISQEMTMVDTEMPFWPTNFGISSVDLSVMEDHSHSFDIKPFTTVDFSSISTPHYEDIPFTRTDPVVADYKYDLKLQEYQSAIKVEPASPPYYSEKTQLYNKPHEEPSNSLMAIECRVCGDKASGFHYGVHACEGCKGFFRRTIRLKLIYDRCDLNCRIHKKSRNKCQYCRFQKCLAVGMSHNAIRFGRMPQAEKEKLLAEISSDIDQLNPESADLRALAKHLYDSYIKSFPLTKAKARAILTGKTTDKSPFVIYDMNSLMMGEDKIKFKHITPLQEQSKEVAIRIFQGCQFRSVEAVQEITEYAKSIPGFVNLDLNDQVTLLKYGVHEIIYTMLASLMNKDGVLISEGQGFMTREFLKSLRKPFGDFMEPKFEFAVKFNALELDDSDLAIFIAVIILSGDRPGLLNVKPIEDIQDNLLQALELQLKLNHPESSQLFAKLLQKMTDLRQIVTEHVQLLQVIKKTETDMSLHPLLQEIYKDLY
# [3] = target: T2, Bile acid receptor (Homo sapiens) (UniProt Q96RI1); experiment: Agonist activity at GST-tagged FXR ligand binding domain (unknown origin) at 10 uM LanthaScreen TR-FRET Coactivator assay
# T2 sequence (whole entry): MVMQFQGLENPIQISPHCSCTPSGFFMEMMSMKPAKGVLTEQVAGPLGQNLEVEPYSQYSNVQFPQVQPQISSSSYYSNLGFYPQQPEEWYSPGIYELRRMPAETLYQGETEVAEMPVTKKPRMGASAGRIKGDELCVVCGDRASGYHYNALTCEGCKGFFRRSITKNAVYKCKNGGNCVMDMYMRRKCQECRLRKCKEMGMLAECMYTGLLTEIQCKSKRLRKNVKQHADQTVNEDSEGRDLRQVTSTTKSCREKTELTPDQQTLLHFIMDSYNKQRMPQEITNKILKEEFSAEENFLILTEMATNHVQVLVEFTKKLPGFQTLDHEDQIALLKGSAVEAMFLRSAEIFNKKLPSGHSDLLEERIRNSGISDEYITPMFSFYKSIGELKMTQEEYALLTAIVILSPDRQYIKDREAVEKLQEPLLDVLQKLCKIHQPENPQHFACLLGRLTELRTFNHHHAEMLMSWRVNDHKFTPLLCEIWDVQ
# [4] = target: T3, Peroxisome proliferator-activated receptor alpha (Homo sapiens) (UniProt Q07869); experiment: Displacement of fluormone pan-PPARgreen from GST-tagged human PPARalpha ligand binding domain at 10 uM by LanthaScreen TR-FRET competitive binding assay
# T3 sequence (whole entry): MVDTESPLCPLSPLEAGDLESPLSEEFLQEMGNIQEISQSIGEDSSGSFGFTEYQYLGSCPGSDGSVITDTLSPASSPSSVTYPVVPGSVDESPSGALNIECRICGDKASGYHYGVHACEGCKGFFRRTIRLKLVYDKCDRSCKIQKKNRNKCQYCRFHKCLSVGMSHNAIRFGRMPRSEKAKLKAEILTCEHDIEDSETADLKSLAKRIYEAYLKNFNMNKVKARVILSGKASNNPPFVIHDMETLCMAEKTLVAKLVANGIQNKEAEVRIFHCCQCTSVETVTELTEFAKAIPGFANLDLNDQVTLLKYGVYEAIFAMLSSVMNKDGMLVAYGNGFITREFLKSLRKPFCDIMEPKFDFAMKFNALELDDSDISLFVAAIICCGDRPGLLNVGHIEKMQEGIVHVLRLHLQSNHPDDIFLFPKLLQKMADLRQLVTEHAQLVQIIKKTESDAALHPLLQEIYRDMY
# [5] = target: T4, Peroxisome proliferator-activated receptor gamma (Homo sapiens) (UniProt P37231); experiment: Partial agonist activity at GST-tagged PPAR-gamma ligand binding domain (unknown origin) assessed as inhibition of pioglitazone-induced recruitment of fluorescein-labeled PRIP/RAP250 coactivator peptide at 10 uM in presence of pioglitazone by LanthaScreen TR-FRET Coactivator assay; settings: filed as partial agonist
# T4 sequence (whole entry): T1 sequence (P37231 whole entry)
# [6] = target: T5, Peroxisome proliferator-activated receptor delta (Homo sapiens) (UniProt Q03181); experiment: Displacement of fluormone pan-PPARgreen from GST-tagged human PPARdelta ligand binding domain at 10 uM by LanthaScreen TR-FRET competitive binding assay
# T5 sequence (whole entry): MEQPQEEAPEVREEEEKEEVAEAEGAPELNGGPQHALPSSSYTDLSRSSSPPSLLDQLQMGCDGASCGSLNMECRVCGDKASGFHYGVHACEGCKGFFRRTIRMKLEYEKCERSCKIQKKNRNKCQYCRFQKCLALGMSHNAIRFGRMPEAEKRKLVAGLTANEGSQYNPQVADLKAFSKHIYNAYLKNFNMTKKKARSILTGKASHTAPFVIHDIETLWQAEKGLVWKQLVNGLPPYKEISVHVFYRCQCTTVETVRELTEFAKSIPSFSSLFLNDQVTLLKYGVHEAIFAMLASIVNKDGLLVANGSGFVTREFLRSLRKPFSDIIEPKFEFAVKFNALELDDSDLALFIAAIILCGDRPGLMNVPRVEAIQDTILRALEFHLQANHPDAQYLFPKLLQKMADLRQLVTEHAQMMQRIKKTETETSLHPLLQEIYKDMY
# [7] = target: T1, Peroxisome proliferator-activated receptor gamma; experiment: Partial agonist activity at PPARgamma in human BMMSC cells assessed as promotion of adiponectin secretion by measuring increase in adiponectin level in presence of IDX medium by ELISA; assay type: cell-based
# [8] = target: T6, Oxysterols receptor LXR-beta (Homo sapiens) (UniProt P55055); experiment: Agonist activity at GST-tagged LXR-beta ligand binding domain (unknown origin) at 10 uM LanthaScreen TR-FRET Coactivator assay
# T6 sequence (whole entry): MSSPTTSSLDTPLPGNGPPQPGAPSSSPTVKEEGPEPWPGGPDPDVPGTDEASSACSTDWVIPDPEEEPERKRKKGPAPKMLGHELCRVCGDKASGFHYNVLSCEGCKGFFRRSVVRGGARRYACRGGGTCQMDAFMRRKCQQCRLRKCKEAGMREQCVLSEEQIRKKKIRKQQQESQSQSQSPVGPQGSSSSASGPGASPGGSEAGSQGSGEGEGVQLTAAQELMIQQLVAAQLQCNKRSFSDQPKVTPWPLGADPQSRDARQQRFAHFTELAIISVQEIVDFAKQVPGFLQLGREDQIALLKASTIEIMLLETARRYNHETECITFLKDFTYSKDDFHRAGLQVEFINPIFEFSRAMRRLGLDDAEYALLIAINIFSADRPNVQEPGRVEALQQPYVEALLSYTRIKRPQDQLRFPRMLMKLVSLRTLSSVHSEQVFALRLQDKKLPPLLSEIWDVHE
# [9] = target: T1, Peroxisome proliferator-activated receptor gamma; experiment: Partial agonist activity at GST-tagged PPAR-gamma ligand binding domain (unknown origin) assessed as recruitment of fluorescein-labeled PRIP/RAP250 coactivator peptide by LanthaScreen TR-FRET Coactivator assay
# [10] = target: T4, Peroxisome proliferator-activated receptor gamma (Homo sapiens); experiment: Partial agonist activity at PPARgamma in human BMMSC cells assessed as increase in size and number of intracellular lipid droplets during adipocyte differentiation in presence of IDX medium at 10 uM by Oil Red O/hematoxylin staining based analysis; assay type: cell-based; settings: filed as partial agonist
# [11] = target: T1, Peroxisome proliferator-activated receptor gamma; experiment: Displacement of fluormone pan-PPARgreen from GST-tagged human PPARgamma ligand binding domain by LanthaScreen TR-FRET competitive binding assay
# [12] = target: T4, Peroxisome proliferator-activated receptor gamma (Homo sapiens); experiment: Partial agonist activity at GST-tagged PPAR-gamma ligand binding domain (unknown origin) assessed as recruitment of fluorescein-labeled PRIP/RAP250 coactivator peptide at 10 uM by LanthaScreen TR-FRET Coactivator assay; settings: filed as partial agonist
# [13] = target: T1, Peroxisome proliferator-activated receptor gamma; experiment: Partial agonist activity at GST-tagged PPAR-gamma ligand binding domain (unknown origin) assessed as recruitment of fluorescein-labeled SRC3 coactivator peptide by LanthaScreen TR-FRET Coactivator assay
# [14] = target: T1, Peroxisome proliferator-activated receptor gamma; experiment: Agonist activity at PPARgamma in human BMMSC cells assessed as promotion of adiponectin secretion by measuring increase in adiponectin level in presence of IDX medium by ELISA; assay type: cell-based
Structure (SMILES),Activity [1],also measured
COC(C)(C)/C=C/C/C(C)=C/COc1ccc2ccc(=O)oc2c1,Non-Toxic,
C=C[C@]1(C)C[C@H](OC(C)=O)[C@@H](C(C)(C)O)C[C@H]1C(=C)C,Non-Toxic,
O=c1ccc2cc3ccoc3cc2o1 [PSORALEN],Non-Toxic,
COc1cc2ccc(=O)oc2cc1OC/C=C(\C)CCC=C(C)C,Non-Toxic,EC50 [2]: > 30 µM; Activity [3]: inactive; Activity [4]: inactive; Activity [5]: Active; Activity [6]: inactive; EC50 [7]: 25.8 µM; Activity [8]: inactive; EC50 [9]: 17.3 µM; Activity [10]: Active; Ki [11]: 10.7 µM; Activity [12]: Active; EC50 [13]: > 30 µM
COc1cc2ccc(=O)oc2c(OC)c1OC/C=C(\C)CCC=C(C)C [ALTISSIMACOUMARIN D],Non-Toxic,EC50 [14]: > 30 µM
C=C(C)C(CC/C(C)=C/COc1c(OC)cc2ccc(=O)oc2c1OC)OO (configuration not stated),Non-Toxic,
COc1c(CC(=O)C(C)C)c(=O)n(C)c2ccccc12,Non-Toxic,
CC(C)=CCOc1c2occc2cc2ccc(=O)oc12 [PENTOSALEN],Non-Toxic,
COc1ccc(-c2cc(=O)c3c(O)cccc3n2C)cc1,Non-Toxic,
COc1c2c(cc3ccc(=O)oc13)C[C@@H](C(C)(C)OC(C)=O)O2,Non-Toxic,
COc1cc2ccc(=O)oc2c(OC)c1OC/C=C(\C)C/C=C/C(C)(C)OO,Non-Toxic,
CC(=O)[C@H]1CC[C@@H]2[C@@H]1[C@H](C(C)C)CC[C@]2(C)O,Non-Toxic,
COc1c(CC(=O)C(C)C)c(=O)n(C)c2c(OC)cccc12 [ORIXALONE A],Non-Toxic,
COc1c2ccoc2c(OC)c2oc(=O)ccc12 [ISOPIMPINELLIN],Non-Toxic,
COc1c2occc2cc2ccc(=O)oc12 [METHOXSALEN],Non-Toxic,
C=C[C@]1(C)C[C@H](O)[C@@H](C(C)(C)O)C[C@H]1C(=C)C,Non-Toxic,
Cn1c(-c2ccccc2)cc(=O)c2c(O)cccc21,Non-Toxic,
COc1c(CC=C(C)C)c(=O)n(C)c2c(OC)cccc12,Non-Toxic,
COc1c(CC=C(C)C)c(=O)[nH]c2c(OC)c(O)ccc12,Non-Toxic,
COc1ccc(Cl)cc1C(=O)NCCc1ccc(S(=O)(=O)NC(=O)NC2CCCCC2)cc1 [GLYBURIDE],,EC50 [14]: 2.3 µM
COc1ccc(-c2cc(=O)c3c(O)c(OC)ccc3n2C)cc1,Non-Toxic,
COc1c2ccoc2cc2oc(=O)ccc12 [BERGAPTEN],Non-Toxic,
COc1c(CC(=O)C(C)C)c(=O)[nH]c2c(OC)cccc12,Non-Toxic,
C=C(C)C(O)CC/C(C)=C/COc1ccc2ccc(=O)oc2c1 (configuration not stated),Non-Toxic,
CC(C)=CCC/C(C)=C/COc1ccc2ccc(=O)oc2c1,Non-Toxic,EC50 [14]: > 30 µM
C=C(C)C(O)COc1c2occc2cc2ccc(=O)oc12 (configuration not stated),Non-Toxic,
COc1c(CC=C(C)C)c(=O)n(C)c2ccccc12,Non-Toxic,
COc1c(CC(=O)C(C)C)c(=O)n(C)c2c(OC)c(O)ccc12,Non-Toxic,

# Reference: ChEMBL document CHEMBL5226363, “Alkaloids and Coumarins with Adiponectin-Secretion-Promoting Activities from the Leaves of Orixa japonica” (J Nat Prod, 2023)
